In brackets after ≈: the same amount, converted by molar mass.
Key:
Assay type in all cases: cell-based
[1] = test system: PSEUDOMONAS AERUGINOSA BMH10; experiment: In vitro antibacterial activity, MIC, BHI agar dilution; details: P. aeruginosa BMH10, unit assumed
[2] = test system: STAPHYLOCOCCUS AUREUS A5177; experiment: as above; details: S. aureus A5177, unit assumed
[3] = test system: KLEBSIELLA PNEUMONIAE ATCC 8045; experiment: as above; details: K. pneumoniae ATCC 8045, unit assumed
[4] = test system: PSEUDOMONAS AERUGINOSA K799/61; experiment: as above; details: P. aeruginosa K799/61, unit assumed
[5] = test system: PSEUDOMONAS AERUGINOSA DPHD-5263; experiment: as above; details: P. aeruginosa DPHD-5263, unit assumed
[6] = test system: ACINETOBACTER CALCOACETICUS CMX 669; experiment: as above; details: A. calcoaceticus CMX 669, unit assumed
ESCHERICHIA COLI H560 = experiment: as above; details: E. coli H560, unit assumed
[7] = test system: STAPHYLOCOCCUS AUREUS NCTC10649M; experiment: as above; details: S. aureus NCTC10649M, unit assumed
[8] = test system: STAPHYLOCOCCUS EPIDERMIDIS 3519; details: S. epidermidis 3519; BHI agar; unit assumed
[9] = test system: STAPHYLOCOCCUS AUREUS A-5278; experiment: In vitro antibacterial activity, MIC, BHI agar dilution; details: S. aureus A-5278, unit assumed
ESCHERICHIA COLI DC-2 = experiment: as above; details: E. coli DC-2, unit assumed
[10] = test system: STAPHYLOCOCCUS AUREUS CMX 642A; experiment: as above; details: S. aureus CMX 642A, unit assumed
ESCHERICHIA COLI JUHL = details: E. coli JUHL; BHI agar; unit assumed
[11] = test system: PSEUDOMONAS AERUGINOSA 5007; experiment: In vitro antibacterial activity, MIC, BHI agar dilution; details: P. aeruginosa 5007, unit assumed
[12] = test system: ENTEROBACTER AEROGENES ATCC 13048; experiment: as above; details: E. aerogenes ATCC 13048, unit assumed
[13] = test system: STAPHYLOCOCCUS AUREUS ATCC 6538P; experiment: as above; details: S. aureus ATCC 6538P, 35-37° C., 20 to 24 hours, unit assumed
[14] = test system: MYCOBACTERIUM SMEGMATIS ATCC 114; experiment: as above; details: M. smegmatis ATCC 114, unit assumed
ESCHERICHIA COLI KNK 437 = details: E. coli KNK 437; BHI agar; unit assumed
[15] = test system: STREPTOCOCCUS PYOGENES 930; experiment: In vitro antibacterial activity, MIC, BHI agar dilution; details: S. pyogenes 930, unit assumed
[16] = test system: PROVIDENCIA STUARTII CMX 640; details: P. stuartii CMX 640; BHI agar; unit assumed
EN[…] ATCC 8043 = experiment: In vitro antibacterial activity, MIC, BHI agar dilution; details: E. faecium ATCC 8043, unit assumed
Summary of the method: (§1)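 Agar dilution in BHI: plates inoculated with 1:100 dilutions of organisms (1:10 for Micrococcus and Streptococcus), incubated 20-24 h at 35-37° C, then inspected for the lowest inhibitory concentration against a drug-free growth control.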

STR[…] 508 = experiment: as above; details: S. agalactiae CMX 508, unit assumed
Summary of the method: as §1

M[…] ATCC 4698 = experiment: as above; details: M. luteus ATCC 4698, unit assumed
Summary of the method: as §1

M[…] ATCC 9341 = experiment: as above; details: M. luteus ATCC 9341, unit assumed
Summary of the method: as §1

ESCHERICHIA COLI SS = experiment: as above; details: E. coli SS, unit assumed
PSEUDOMONAS CEPACIA 296I = experiment: as above; details: P. cepacia 296I, unit assumed
[17] = test system: STREPTOCOCCUS BOVIS A-5169; experiment: as above; details: S. bovis A-5169, unit assumed
[18] = test system: PSEUDOMONAS AERUGINOSA K799/WT; experiment: as above; details: P. aeruginosa K799/WT, unit assumed
[19] = test system: STAPHYLOCOCCUS AUREUS CMX 553; experiment: as above; details: S. aureus CMX 553, unit assumed
[20] = test system: PSEUDOMONAS AERUGINOSA DPHD-2862; experiment: as above; details: P. aeruginosa DPHD-2862, unit assumed
[21] = test system: STREPTOCOCCUS PYOGENES EES61; experiment: as above; details: S. pyogenes EES61, unit assumed
[22] = test system: STREPTOCOCCUS PYOGENES PIU 2548; experiment: as above; details: S. pyogenes PIU 2548, unit assumed
CANDIDA ALBICANS CCH 442 = experiment: as above; details: C. albicans CCH 442, unit assumed
[23] = test system: STAPHYLOCOCCUS AUREUS 1775; experiment: as above; details: S. aureus 1775, unit assumed

Row | SMILES | MIC [1] [µg/mL] | MIC [2] [µg/mL] | MIC [3] [µg/mL] | MIC [4] [µg/mL] | MIC [5] [µg/mL] | MIC [6] [µg/mL] | MIC (ESCHERICHIA COLI H560) [µg/mL] | MIC [7] [µg/mL] | MIC [8] [µg/mL] | MIC [9] [µg/mL] | MIC (ESCHERICHIA COLI DC-2) [µg/mL] | MIC [10] [µg/mL] | MIC (ESCHERICHIA COLI JUHL) [µg/mL] | MIC [11] [µg/mL] | MIC [12] [µg/mL] | MIC [13] [µg/mL] | MIC [14] [µg/mL] | MIC (ESCHERICHIA COLI KNK 437) [µg/mL] | MIC [15] [µg/mL] | MIC [16] [µg/mL] | other results
1 | CC[C@H]1OC(=O)[C@H](C)C(=O)[C@H](C)[C@@H](O[C@@H]2O[C@H](C)C[C@H](N(C)C)[C@H]2O)[C@](C)(OC)C[C@@H](C)C2=N[C@H](COCc3cccc(Br)c3)CN3C(=O)O[C@@]1(C)[C@H]3[C@H]2C [Example 105] | > 100 | 0.05 (≈ 0.0597 µM) | > 100 | 1.56 (≈ 1.86 µM) | > 100 | 100 (≈ 119 µM) | 50 (≈ 59.7 µM) | 0.02 (≈ 0.0239 µM) | 0.05 (≈ 0.0597 µM) | 100 (≈ 119 µM) | 100 (≈ 119 µM) | 0.05 (≈ 0.0597 µM) | 100 (≈ 119 µM) | > 100 | > 100 | 0.05 (≈ 0.0597 µM) | 0.78 (≈ 0.932 µM) | > 100 | 25 (≈ 29.9 µM) | > 100 | MIC (EN[…] ATCC 8043): ≤ 0.005 µg/mL; MIC (STR[…] 508): ≤ 0.005 µg/mL; MIC (M[…] ATCC 4698): 0.01 µg/mL (≈ 0.0119 µM); MIC (M[…] ATCC 9341): ≤ 0.005 µg/mL; MIC (ESCHERICHIA COLI SS): 0.39 µg/mL (≈ 0.466 µM); MIC (PSEUDOMONAS CEPACIA 296I): 100 µg/mL (≈ 119 µM); MIC [17]: ≤ 0.005 µg/mL; MIC [18]: > 100 µg/mL; MIC [19]: 0.05 µg/mL (≈ 0.0597 µM); MIC [20]: > 100 µg/mL; MIC [21]: ≤ 0.005 µg/mL; MIC [22]: 0.05 µg/mL (≈ 0.0597 µM); MIC (CANDIDA ALBICANS CCH 442): 100 µg/mL (≈ 119 µM); MIC [23]: 100 µg/mL (≈ 119 µM)
2 | CC[C@H]1OC(=O)[C@H](C)C(=O)[C@H](C)[C@@H](O[C@@H]2O[C@H](C)C[C@H](N(C)C)[C@H]2O)[C@](C)(OC)C[C@@H](C)C2=N[C@H](COCc3ccccc3Br)CN3C(=O)O[C@@]1(C)[C@H]3[C@H]2C [Example 104] | > 100 | 0.05 (≈ 0.0597 µM) | > 100 | 3.1 (≈ 3.7 µM) | > 100 | 100 (≈ 119 µM) | 50 (≈ 59.7 µM) | 0.05 (≈ 0.0597 µM) | 0.05 (≈ 0.0597 µM) | 100 (≈ 119 µM) | 100 (≈ 119 µM) | 0.05 (≈ 0.0597 µM) | 100 (≈ 119 µM) | > 100 | > 100 | 0.05 (≈ 0.0597 µM) | 0.39 (≈ 0.466 µM) | > 100 | 25 (≈ 29.9 µM) | > 100 | MIC (EN[…] ATCC 8043): 0.01 µg/mL (≈ 0.0119 µM); MIC (STR[…] 508): 0.01 µg/mL (≈ 0.0119 µM); MIC (M[…] ATCC 4698): 0.1 µg/mL (≈ 0.119 µM); MIC (M[…] ATCC 9341): 0.02 µg/mL (≈ 0.0239 µM); MIC (ESCHERICHIA COLI SS): 0.78 µg/mL (≈ 0.932 µM); MIC (PSEUDOMONAS CEPACIA 296I): 100 µg/mL (≈ 119 µM); MIC [17]: 0.01 µg/mL (≈ 0.0119 µM); MIC [18]: > 100 µg/mL; MIC [19]: 0.05 µg/mL (≈ 0.0597 µM); MIC [20]: > 100 µg/mL; MIC [21]: 0.01 µg/mL (≈ 0.0119 µM); MIC [22]: 0.05 µg/mL (≈ 0.0597 µM); MIC (CANDIDA ALBICANS CCH 442): 100 µg/mL (≈ 119 µM); MIC [23]: 100 µg/mL (≈ 119 µM)
